Test results taken from ChEMBL document CHEMBL4024727, “Synthesis and antimycobacterial screening of new thiazolyl-oxazole derivatives” (Eur J Med Chem, 2017).
In brackets after ≈: the same amount, converted by molar mass.

How the values were obtained:
[1] = test system: Mycobacterium tuberculosis; assay: Antitubercular activity against Mycobacterium bovis BCG ATCC 35743 dormant stage by nitrate reductase based two-fold dilution assay; type: functional; conditions: BCG str. ATCC 35743
[2] = test system: Mycobacterium tuberculosis; assay: Growth inhibition of Mycobacterium tuberculosis H37Ra ATCC 25177 at 30 ug/ml by XTT dye based two-fold dilution method relative to control; type: functional; conditions: read-out: GI
Pseudomonas fluorescens [3] = assay: Growth inhibition of Pseudomonas fluorescens NCIM 2059 at 1 ug/ml measured after 8 hrs relative to control; type: functional; conditions: NCIM 2059, 8 h, read-out: GI
[4] = Selectivity index, ratio of GI50 for human A549 cells to MIC for Mycobacterium tuberculosis H37Ra ATCC 25177 dormant stage; type: toxicity; conditions: read-out: Selectivity Index
Staphylococcus aureus [5] = assay: Growth inhibition of Staphylococcus aureus NCIM 2602 at 1 ug/ml measured after 12 hrs relative to control; type: functional; conditions: NCIM 2602, 12 h, read-out: GI
Escherichia coli [6] = assay: Growth inhibition of Escherichia coli NCIM 2576 at 10 ug/ml measured after 8 hrs relative to control; type: functional; conditions: NCIM 2576, 8 h, read-out: GI
[7] = (§1) Growth inhibition of human HeLa cells by MTT assay; type: cell-based; conditions: HeLa cells
HeLa = assay: as §1; type: cell-based; conditions: hela
Bacillus subtilis [8] = assay: Antibacterial activity against Bacillus subtilis NCIM 2162 measured after 12 hrs; type: functional; conditions: NCIM 2162, 12 h
Bacillus subtilis [9] = assay: Growth inhibition of Bacillus subtilis NCIM 2162 at 30 ug/ml measured after 12 hrs relative to control; type: functional; conditions: NCIM 2162, 12 h, read-out: GI
[10] = Selectivity index, ratio of GI50 for human PANC1 cells to MIC for Mycobacterium bovis BCG ATCC 35743 dormant stage; type: toxicity; conditions: PANC-1 cells, read-out: Selectivity Index
[11] = Selectivity index, ratio of GI50 for human PANC1 cells to MIC for Mycobacterium tuberculosis H37Ra ATCC 25177 dormant stage; type: toxicity; conditions: PANC-1 cells, read-out: Selectivity Index
Escherichia coli [12] = assay: Growth inhibition of Escherichia coli NCIM 2576 at 1 ug/ml measured after 8 hrs relative to control; type: functional; conditions: NCIM 2576, 8 h, read-out: GI
[13] = (§2) Growth inhibition of human PANC1 cells by MTT assay; type: cell-based, PANC-1; conditions: PANC-1 cells
PANC-1 = assay: as §2; type: cell-based; conditions: panc-1
Escherichia coli [14] = assay: Growth inhibition of Escherichia coli NCIM 2576 at 30 ug/ml measured after 8 hrs relative to control; type: functional; conditions: NCIM 2576, 8 h, read-out: GI
[15] = test system: Mycobacterium tuberculosis; assay: Antitubercular activity against Mycobacterium tuberculosis H37Ra ATCC 25177 dormant stage by XTT dye based two-fold dilution method; type: functional
Escherichia coli [16] = assay: Antibacterial activity against Escherichia coli NCIM 2576 measured after 8 hrs; type: functional; conditions: NCIM 2576, 8 h
[17] = Selectivity index, ratio of GI50 for human HeLa cells to MIC for Mycobacterium tuberculosis H37Ra ATCC 25177 dormant stage; type: toxicity, cell-based; conditions: read-out: Selectivity Index
Bacillus subtilis [18] = assay: Growth inhibition of Bacillus subtilis NCIM 2162 at 1 ug/ml measured after 12 hrs relative to control; type: functional; conditions: NCIM 2162, 12 h, read-out: GI
[19] = test system: Mycobacterium tuberculosis; assay: Growth inhibition of Mycobacterium tuberculosis H37Ra ATCC 25177 at 3 ug/ml by XTT dye based two-fold dilution method relative to control; type: functional; conditions: read-out: GI
[20] = (§3) Growth inhibition of human A549 cells by MTT assay; type: cell-based; conditions: A549 cells
A549 = assay: as §3; type: cell-based; conditions: a549
[21] = Selectivity index, ratio of GI50 for human A549 cells to MIC for Mycobacterium bovis BCG ATCC 35743 dormant stage; type: toxicity; conditions: read-out: Selectivity Index
Bacillus subtilis [22] = assay: Growth inhibition of Bacillus subtilis NCIM 2162 at 10 ug/ml measured after 12 hrs relative to control; type: functional; conditions: NCIM 2162, 12 h, read-out: GI
Pseudomonas fluorescens [23] = assay: Growth inhibition of Pseudomonas fluorescens NCIM 2059 at 30 ug/ml measured after 8 hrs relative to control; type: functional; conditions: NCIM 2059, 8 h, read-out: GI
Pseudomonas fluorescens [24] = assay: Growth inhibition of Pseudomonas fluorescens NCIM 2059 at 10 ug/ml measured after 8 hrs relative to control; type: functional; conditions: NCIM 2059, 8 h, read-out: GI
Pseudomonas fluorescens [25] = assay: Antibacterial activity against Pseudomonas fluorescens NCIM 2059 measured after 8 hrs; type: functional; conditions: NCIM 2059, 8 h
[26] = Selectivity index, ratio of GI50 for human HeLa cells to MIC for Mycobacterium bovis BCG ATCC 35743 dormant stage; type: toxicity, cell-based; conditions: read-out: Selectivity Index
[27] = test system: Mycobacterium tuberculosis; assay: Growth inhibition of Mycobacterium bovis BCG ATCC 35743 at 10 ug/ml by nitrate reductase based two-fold dilution assay relative to control; type: functional; conditions: BCG str. ATCC 35743, read-out: GI
Staphylococcus aureus [28] = assay: Growth inhibition of Staphylococcus aureus NCIM 2602 at 10 ug/ml measured after 12 hrs relative to control; type: functional; conditions: NCIM 2602, 12 h, read-out: GI
[29] = test system: Mycobacterium tuberculosis; assay: Growth inhibition of Mycobacterium bovis BCG ATCC 35743 at 30 ug/ml by nitrate reductase based two-fold dilution assay relative to control; type: functional; conditions: BCG str. ATCC 35743, read-out: GI
Staphylococcus aureus [30] = assay: Growth inhibition of Staphylococcus aureus NCIM 2602 at 30 ug/ml measured after 12 hrs relative to control; type: functional; conditions: NCIM 2602, 12 h, read-out: GI
Staphylococcus aureus [31] = assay: Antibacterial activity against Staphylococcus aureus NCIM 2602 measured after 12 hrs; type: functional; conditions: NCIM 2602, 12 h
[32] = test system: Mycobacterium tuberculosis; assay: Growth inhibition of Mycobacterium tuberculosis H37Ra ATCC 25177 at 10 ug/ml by XTT dye based two-fold dilution method relative to control; type: functional; conditions: read-out: GI
[33] = test system: Mycobacterium tuberculosis; assay: Growth inhibition of Mycobacterium bovis BCG ATCC 35743 at 1 ug/ml by nitrate reductase based two-fold dilution assay relative to control; type: functional; conditions: BCG str. ATCC 35743, read-out: GI

## Cc1nc(-c2ccc(F)cc2)oc1-c1csc(Cc2ccccc2)n1
[1]
  IC50: 0.54 µM
  MIC90: 7.33 µM (≈ 2.57 µg/mL)
[2]
  inhibition of growth at 30 µg/mL: 99%
Pseudomonas fluorescens [3]
  inhibition of growth at 1 µg/mL: 87%
[4]
  selectivity ratio: 115
Staphylococcus aureus [5]
  inhibition of growth at 1 µg/mL: 93.9%
Escherichia coli [6]
  inhibition of growth at 10 µg/mL: 90.3%
[7]
  GI50: 148 µg/mL (≈ 423 µM)
HeLa
  GI90: 248.63 µg/mL (≈ 710 µM)
Bacillus subtilis [8]
  MIC: 5.99 µM (≈ 2.1 µg/mL)
Bacillus subtilis [9]
  inhibition of growth at 30 µg/mL: 99.9%
[10]
  selectivity ratio: 97
[11]
  selectivity ratio: 115
Escherichia coli [12]
  inhibition of growth at 1 µg/mL: 88.8%
[13]
  GI50: > 250 µg/mL
PANC-1
  GI90: > 250 µg/mL
Escherichia coli [14]
  inhibition of growth at 30 µg/mL: 94%
[15]
  IC50: 0.49 µM
  MIC90: 6.2 µM (≈ 2.17 µg/mL)
Escherichia coli [16]
  MIC: 20.6 µM (≈ 7.2 µg/mL)
[17]
  selectivity ratio: 68
Bacillus subtilis [18]
  inhibition of growth at 1 µg/mL: 91.2%
[19]
  inhibition of growth at 3 µg/mL: 95%
[20]
  GI50: > 250 µg/mL
A549
  GI90: > 250 µg/mL
[21]
  selectivity ratio: 97
Bacillus subtilis [22]
  inhibition of growth at 10 µg/mL: 95.8%
Pseudomonas fluorescens [23]
  inhibition of growth at 30 µg/mL: 99.6%
Pseudomonas fluorescens [24]
  inhibition of growth at 10 µg/mL: 92.4%
Pseudomonas fluorescens [25]
  MIC: 19.1 µM (≈ 6.7 µg/mL)
[26]
  selectivity ratio: 58
[27]
  inhibition of growth at 10 µg/mL: 96%
Staphylococcus aureus [28]
  inhibition of growth at 10 µg/mL: 95.9%
[29]
  inhibition of growth at 30 µg/mL: 97%
Staphylococcus aureus [30]
  inhibition of growth at 30 µg/mL: 98.5%
Staphylococcus aureus [31]
  MIC: 6.85 µM (≈ 2.4 µg/mL)
[32]
  inhibition of growth at 10 µg/mL: 94%
[33]
  inhibition of growth at 1 µg/mL: 97%

## Cc1nc(-c2ccccc2)oc1-c1csc(-c2ccccc2)n1
[1]
  IC50: 7.34 µM
  MIC90: 85.9 µM (≈ 27.4 µg/mL)
[2]
  inhibition of growth at 30 µg/mL: 93%
Pseudomonas fluorescens [3]
  inhibition of growth at 1 µg/mL: 88.9%
[4]
  selectivity ratio: 9
Staphylococcus aureus [5]
  inhibition of growth at 1 µg/mL: 85.7%
Escherichia coli [6]
  inhibition of growth at 10 µg/mL: 94.2%
[7]
  GI50: 123 µg/mL (≈ 387 µM)
HeLa
  GI90: > 250 µg/mL
Bacillus subtilis [8]
  MIC: 7.91 µM (≈ 2.52 µg/mL)
Bacillus subtilis [9]
  inhibition of growth at 30 µg/mL: 96.8%
[10]
  selectivity ratio: 9
[11]
  selectivity ratio: 9
Escherichia coli [12]
  inhibition of growth at 1 µg/mL: 91.2%
[13]
  GI50: > 250 µg/mL
PANC-1
  GI90: > 250 µg/mL
Escherichia coli [14]
  inhibition of growth at 30 µg/mL: 98.2%
[15]
  IC50: 8.66 µM
  MIC90: 87.5 µM (≈ 27.9 µg/mL)
Escherichia coli [16]
  MIC: 7.54 µM (≈ 2.4 µg/mL)
[17]
  selectivity ratio: 4
Bacillus subtilis [18]
  inhibition of growth at 1 µg/mL: 91.3%
[19]
  inhibition of growth at 3 µg/mL: 56%
[20]
  GI50: > 250 µg/mL
A549
  GI90: > 250 µg/mL
[21]
  selectivity ratio: 9
Bacillus subtilis [22]
  inhibition of growth at 10 µg/mL: 93.2%
Pseudomonas fluorescens [23]
  inhibition of growth at 30 µg/mL: 97.7%
Pseudomonas fluorescens [24]
  inhibition of growth at 10 µg/mL: 93.4%
Pseudomonas fluorescens [25]
  MIC: 13.8 µM (≈ 4.4 µg/mL)
[26]
  selectivity ratio: 5
[27]
  inhibition of growth at 10 µg/mL: 63%
Staphylococcus aureus [28]
  inhibition of growth at 10 µg/mL: 89.9%
[29]
  inhibition of growth at 30 µg/mL: 92%
Staphylococcus aureus [30]
  inhibition of growth at 30 µg/mL: 94.2%
Staphylococcus aureus [31]
  MIC: 39.3 µM (≈ 12.5 µg/mL)
[32]
  inhibition of growth at 10 µg/mL: 71%
[33]
  inhibition of growth at 1 µg/mL: 63%
